Data on 6 compounds can be found in US7981903B2, “2-[2-{phenylamino}-1H-pyrrolo[2,3-D]pyrimidin-4-yl)amino] benzamide derivatives as IGF-1R inhibitors for the treatment of cancer” (GlaxoSmithKline LLC, priority 2007, dated 2011).

The IC50 is the concentration that inhibits the measured activity by half.

One experiment has as its target T1, human IR (hIR) (Homo sapiens, UniProt P06213).
T1 construct: containing amino acid residues 979-1382 of human IR; made in house; host or cells: Sf9 cells (baculovirus), same process as hIGF1R
Briefly: TR-FRET kinase assay of purified hIR. The experiment is classed as biochemical. Particulars: activated hIR 0.5 nM, 10 μM ATP, values given as pIC50 category. In general terms: In TR-FRET formats the signal depends on donor and acceptor labels being close together.

The subject of another experiment is NCI-H929. Briefly: Inhibition of cell proliferation (CellTiter-Glo or InCell analyzer), NCI-H929. It counts as cell-based. Conditions: Homo sapiens, 72 h / 3 days, values given as IC50 category. The method, boiled down: In one
In general terms: In ATP-based viability assays light output follows the ATP content of the culture.

T1 sequence (P06213 979-1382): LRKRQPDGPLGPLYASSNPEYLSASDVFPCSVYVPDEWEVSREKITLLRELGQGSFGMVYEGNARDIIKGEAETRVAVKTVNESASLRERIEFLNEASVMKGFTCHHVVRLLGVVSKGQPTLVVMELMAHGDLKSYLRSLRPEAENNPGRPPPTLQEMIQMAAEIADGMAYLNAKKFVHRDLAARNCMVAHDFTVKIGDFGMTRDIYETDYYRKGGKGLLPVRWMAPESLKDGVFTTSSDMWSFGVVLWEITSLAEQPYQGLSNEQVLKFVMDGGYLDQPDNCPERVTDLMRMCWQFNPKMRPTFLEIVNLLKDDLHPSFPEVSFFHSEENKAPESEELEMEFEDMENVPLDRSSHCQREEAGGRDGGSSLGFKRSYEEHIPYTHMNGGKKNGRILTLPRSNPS

On to `COc1cc2c(cc1Nc1nc(Nc3cc(F)cc(F)c3C(N)=O)c3cc[nH]c3n1)N(C(=O)CN(C)C)CCC2` [Example 178, 2-[(2-{[1-(N,N-dimethylglycyl)-6-(methyloxy)-1,2,3,4-tetrahydro-7-quinolinyl]amino}-1H-pyrrolo[2,3-d]pyrimidin-4-yl)amino]-4,6-difluorobenzamide], for which the half-inhibitory concentration (IC50) was 0.251 to 1 nM against human IR (hIR) and under 250 nM in the experiment with NCI-H929.

With `CNC(=O)c1c(F)cccc1Nc1nc(Nc2cc3c(cc2OC)CCN3C(=O)C(C)(C)O)nc2[nH]ccc12` [Example 193, 2-fluoro-6-[(2-{[1-(2-hydroxy-2-methylpropanoyl)-5-(methyloxy)-2,3-dihydro-1H-indol-6-yl]amino}-1H-pyrrolo[2,3-d]pyrimidin-4-yl)amino]-N-methylbenzamide], the results for the IC50 on human IR (hIR) and in the experiment on NCI-H929 were 5.01 to 158 nM and over 1000 nM, respectively.

Turning to `COc1cc2c(cc1Nc1nc(Nc3cccc(F)c3C(N)=O)c3cc[nH]c3n1)CN(C(=O)CCN1CCN(C(C)C)CC1)CC2` [Example 229, 2-fluoro-6-[(2-{[2-{3-[4-(1-methylethyl)-1-piperazinyl]propanoyl}-6-(methyloxy)-1,2,3,4-tetrahydro-7-isoquinolinyl]amino}-1H-pyrrolo[2,3-d]pyrimidin-4-yl)amino]benzamide], the IC50 on human IR (hIR) is 5.01 to 158 nM; in the experiment on NCI-H929, 250 to 1000 nM.

For `COc1cc2c(cc1Nc1nc(Nc3cccc(F)c3C(N)=O)c3cc[nH]c3n1)N(C(=O)CN1CCCCC1)CCC2` [Example 218, 2-fluoro-6-[(2-{[6-(methyloxy)-1-(1-piperidinylacetyl)-1,2,3,4-tetrahydro-7-quinolinyl]amino}-1H-pyrrolo[2,3-d]pyrimidin-4-yl)amino]benzamide], the results for the IC50 against human IR (hIR) and in the experiment on NCI-H929 were 0.251 to 1 nM and under 250 nM, respectively.

For `COc1cc(C2CCN(C(C)C)CC2)ccc1Nc1nc(Nc2ccc(F)cc2C(N)=O)c2cc[nH]c2n1` [Example 58, 5-fluoro-2-[(2-{[4-[1-(1-methylethyl)-4-piperidinyl]-2-(methyloxy)phenyl]amino}-1H-pyrrolo[2,3-d]pyrimidin-4-yl)amino]benzamide], the IC50 is 0.251 to 1 nM at human IR (hIR) and under 250 nM with NCI-H929.

For the compound `CCCN1CCC(c2ccc(Nc3nc(Nc4cc(F)cc(F)c4C(N)=O)c4cc[nH]c4n3)c(OC)c2)CC1` [Example 92, 2,4-difluoro-6-[(2-{[2-(methyloxy)-4-(1-propyl-4-piperidinyl)phenyl]amino}-1H-pyrrolo[2,3-d]pyrimidin-4-yl)amino]benzamide], the results for the IC50 at human IR (hIR) and in the experiment with NCI-H929 were 0.251 to 1 nM and under 250 nM, respectively.
